Where “and” joins values, the source holds several entries; their conditions need not be identical. Equal values may be shown once. Toxic doses and inconclusive results are not listed.
Tested on: BDF1 mice, P329 reticulum cell sarcoma ip, survival T/C
Test: NCI In Vivo Anticancer Drug Screen. Data for tumor model P329 Reticulum Cell Sarcoma (intraperitoneal) in B6D2F1 (BDF1) mice
Details: endpoint: median survival time, higher = longer survival
Experimental: The antitumor activity of compounds was measured in mice bearing transplantable tumors. Survival or tumor size were measured and the results are expressed as the measurement made in the treated group (T) divided by the measurement made in the vehicle treated control group (C). The tumor model used in this assay is P329 Reticulum Cell Sarcoma (intraperitoneal) in B6D2F1 (BDF1) mice

[1] = dose: 12.5 mg/kg/injection, schedule: Q01DX010 (ip), vehicle: saline
[2] = dose: 25.0 mg/kg/injection, schedule: Q01DX010 (ip), vehicle: saline
[3] = dose: 5.0 mg/kg/injection, schedule: Q01DX010 (ip), vehicle: saline
[4] = dose: 10.0 mg/kg/injection, schedule: Q01DX010 (ip), vehicle: saline
[5] = dose: 2.5 mg/kg/injection, schedule: Q01DX010 (ip), vehicle: saline
[6] = dose: 4.0 mg/kg/injection, schedule: Q01DX010 (ip), vehicle: saline
[7] = dose: 16.0 mg/kg/injection, schedule: Q01DX010 (ip), vehicle: saline
[8] = dose: 20.0 mg/kg/injection, schedule: Q01DX010 (ip), vehicle: saline
[9] = dose: 100.0 mg/kg/injection, schedule: Q01DX010 (ip), vehicle: saline
[10] = dose: 8.0 mg/kg/injection, schedule: Q01DX010 (ip), vehicle: saline
[11] = dose: 3.13 mg/kg/injection, schedule: Q01DX010 (ip), vehicle: saline
[12] = dose: 6.25 mg/kg/injection, schedule: Q01DX010 (ip), vehicle: saline

SMILES: COS(C)(=O)=O
- T/C [1]: 100 % of control
- T/C [2]: 93 % of control
- T/C (dose: 50.0 mg/kg/injection, schedule: Q01DX010 (ip), vehicle: saline): 116 % of control

SMILES: Cc1cc(N(CCCl)CCCl)ccc1N=Nc1ccccc1C(=O)O
- T/C [3]: 107 % of control and 114 % of control
- T/C [4]: 114 % of control

SMILES: Oc1cc(CN(CCCl)CCCl)c(O)cc1CN(CCCl)CCCl
- T/C (dose: 0.63 mg/kg/injection, schedule: Q01DX010 (ip), vehicle: saline): 103 % of control and 114 % of control
- T/C (dose: 1.25 mg/kg/injection, schedule: Q01DX010 (ip), vehicle: saline): 114 % of control
- T/C [5]: 117 % of control
- T/C [3]: 96 % of control and 107 % of control

SMILES: CC(=O)O[C@]1(C(C)=O)CC[C@H]2[C@@H]3C[C@H](C)C4=CC(=O)C=C[C@]4(C)[C@@]3(F)[C@@H](O)C[C@@]21C
- T/C (dose: 12.5 mg/kg/injection, schedule: Q01DX010 (sc), vehicle: steriod suspending solution): 93 % of control
- T/C (dose: 25.0 mg/kg/injection, schedule: Q01DX010 (sc), vehicle: steriod suspending solution): 93 % of control
- T/C (dose: 50.0 mg/kg/injection, schedule: Q01DX010 (sc), vehicle: steriod suspending solution): 93 % of control

SMILES: S=P(N1CC1)(N1CC1)N1CC1
- T/C (dose: 0.75 mg/kg/injection, schedule: Q01DX010 (ip), vehicle: saline): 103 % of control and 107 % of control
- T/C (dose: 1.5 mg/kg/injection, schedule: Q01DX010 (ip), vehicle: saline): 111 % of control
- T/C (dose: 6.0 mg/kg/injection, schedule: Q01DX010 (ip), vehicle: saline): 115 % of control and 123 % of control

SMILES: Nc1nc(=S)c2ncn(C3OC(CO)C(O)C3O)c2[nH]1 (stereo not drawn)
- T/C [6]: 110 % of control
- T/C [7]: 90 % of control

SMILES: CN(C)c1ccc(/C=C/c2ccnc3ccccc23)cc1
- T/C [3]: 100 % of control and 103 % of control
- T/C [4]: 92 % of control and 107 % of control
- T/C [8]: 96 % of control and 103 % of control
- T/C (dose: 40.0 mg/kg/injection, schedule: Q01DX010 (ip), vehicle: saline): 92 % of control and 100 % of control

SMILES: CN(C)/N=N/c1nc[nH]c1C(N)=O
- T/C [2]: 121 % of control
- T/C [9]: 169 % of control
- T/C (dose: 200.0 mg/kg/injection, schedule: Q01DX010 (ip), vehicle: saline): 100 % of control and 110 % of control

SMILES: c1ccc(CNc2ncnc3[nH]ncc23)cc1
- T/C [10]: 103 % of control and 115 % of control
- T/C [7]: 107 % of control

SMILES: C[C@H]1C(=O)O[C@@H]2CCN3CC=C(COC(=O)[C@](C)(O)[C@@]1(C)O)[C@H]23
- T/C [11]: 106 % of control and 107 % of control
- T/C [12]: 103 % of control and 107 % of control
- T/C [1]: 103 % of control
- T/C [2]: 100 % of control and 103 % of control

SMILES: CCN(CC)CCNc1ccc(C)c2sc3ccccc3c(=O)c12
- T/C [2]: 111 % of control and 114 % of control
- T/C [9]: 115 % of control

SMILES: O=C(Nc1ccc(NC2=NCCN2)cc1)c1ccc(C(=O)Nc2ccc(NC3=NCCN3)cc2)cc1
- T/C (dose: 2.0 mg/kg/injection, schedule: Q01DX010 (ip), vehicle: saline): 153 % of control and 157 % of control
- T/C [6]: 173 % of control and 176 % of control
- T/C [10]: 184 % of control and 203 % of control
- T/C [7]: 88 % of control and 92 % of control

SMILES: CO[C@@H]1[C@@H](OC2OC(C)C(OC3CC(C)(O)C(OC(=O)CC(C)C)C(C)O3)C(N(C)C)C2O)[C@@H](CC=O)C[C@@H](C)C(=O)/C=C/C2O[C@H]2C[C@@H](C)OC(=O)C[C@H]1OC(C)=O (stereo partly drawn)
- T/C (dose: 37.5 mg/kg/injection, schedule: Q01DX010 (ip), vehicle: saline): 100 % of control
- T/C (dose: 75.0 mg/kg/injection, schedule: Q01DX010 (ip), vehicle: saline): 100 % of control and 107 % of control
- T/C (dose: 150.0 mg/kg/injection, schedule: Q01DX010 (ip), vehicle: saline): 103 % of control and 107 % of control
- T/C (dose: 300.0 mg/kg/injection, schedule: Q01DX010 (ip), vehicle: saline): 107 % of control and 114 % of control

SMILES: N=C(N)SCc1c2ccccc2c(CSC(=N)N)c2ccccc12
- T/C [5]: 112 % of control
- T/C [3]: 118 % of control
- T/C [4]: 106 % of control
- T/C [8]: 118 % of control

SMILES: O=C(O)CCCc1ccc(N(CCCl)CCCl)cc1
- T/C [11]: 96 % of control and 108 % of control
- T/C [12]: 103 % of control and 108 % of control
- T/C [1]: 116 % of control and 119 % of control

SMILES: CN(Cc1cnc2nc(N)nc(N)c2n1)c1ccc(C(=O)N[C@@H](CCC(=O)O)C(=O)O)cc1
- T/C (dose: 0.19 mg/kg/injection, schedule: Q01DX010 (ip), vehicle: other): 101 % of control and 106 % of control
- T/C (dose: 0.38 mg/kg/injection, schedule: Q01DX010 (ip), vehicle: other): 100 % of control and 110 % of control and 116 % of control
- T/C (dose: 0.75 mg/kg/injection, schedule: Q01DX010 (ip), vehicle: other): 114 % of control

SMILES: CCN(CCNc1ccc(C)c2sc3cc(Cl)ccc3c(=O)c12)CC(C)O (stereo not drawn)
- T/C (dose: 31.3 mg/kg/injection, schedule: Q01DX010 (ip), vehicle: saline): 100 % of control
- T/C (dose: 250.0 mg/kg/injection, schedule: Q01DX010 (ip), vehicle: saline): 92 % of control

SMILES: COC(=O)[C@@H]1c2cc3c(c(O)c2[C@@H](OC2OC(C)C(OC)C(C)(OC)C2OC)C[C@]1(C)O)C(=O)c1c(O)cc2c(c1C3=O)O[C@H]1O[C@]2(C)[C@H](O)[C@@H](N(C)C)[C@@H]1O (stereo partly drawn)
- T/C (dose: 62.5 micrograms/kg/injection, schedule: Q01DX010 (ip), vehicle: saline): 100 % of control
- T/C (dose: 125.0 micrograms/kg/injection, schedule: Q01DX010 (ip), vehicle: saline): 93 % of control and 100 % of control
- T/C (dose: 250.0 micrograms/kg/injection, schedule: Q01DX010 (ip), vehicle: saline): 90 % of control and 100 % of control
- T/C (dose: 500.0 micrograms/kg/injection, schedule: Q01DX010 (ip), vehicle: saline): 93 % of control and 100 % of control

SMILES: Cn1cnc([N+](=O)[O-])c1Sc1nc(N)nc2nc[nH]c12
- T/C [5]: 150 % of control
- T/C [4]: 100 % of control
